Legend:
FLT3^D835H = molecular target: T1, FLT3^D835H (Homo sapiens, UniProt P36888, D835H); test: KINOMEscan active-site competitive binding assay
T1 construct: purchased DiscoveRx

PDGFRα = molecular target: T2, PDGFRα (Homo sapiens, UniProt P16234); test: PDGFRA phosphorylation assay, PathHunter cell line U2OS/PDGFRA; assay type: cell-based; conditions: U2OS/PDGFRA cells; 0.1% bovine serum albumin; read-out: Mean ± SD IC50
T2 construct: host or cells: PathHunter cell line (U2OS/PDGFRA)
Protocol: VEGFR2 assays were performed in murine fibroblasts (NIH‐3T3) in the presence of 0.1 mg/mL human serum albumin. […] Substrate phosphorylation was determined from total cell lysates by enzyme‐linked immunosorbent assay. In addition, an FGFR phosphorylation assay was performed using a human gastric carcinoma cell line (SNU‐16), with pFGFR assessed by western blot. The PDGFRA phosphorylation assay was performed by DiscoverRx using the DiscoverRx PathHunter cell line, modified to express PDGFRA. […] The assay signal was generated using a detection reagent cocktail and measured by chemoluminescence 13. Both the PDGFRA and FGFR assays were performed in the presence of 0.1 mg/mL BSA.

KIT^L576P = molecular target: T3, KIT^L576P (Homo sapiens, UniProt P10721, L576P); test: KINOMEscan active-site competitive binding assay
T3 construct: purchased DiscoveRx

PDGFRB = molecular target: T4, PDGFRB (Homo sapiens, UniProt P09619); test: KINOMEscan active-site competitive binding assay; conditions: slash = two separate measurements
T4 construct: purchased DiscoveRx

KIT = KIT (Homo sapiens, UniProt P10721); test: Cellular kinase phosphorylation assay, M07e/KIT; assay type: cell-based; design: human acute megakaryoblastic leukemia cell line (M07e; wt KIT assay); host or cells: M07e; conditions: M07e/KIT cells; without serum; read-out: Mean ± SD IC50
TIE‐2 [1] = molecular target: T5, TIE‐2 (Homo sapiens, UniProt Q02763); test: Cellular kinase phosphorylation assay, CHO/TIE2; assay type: cell-based; conditions: CHO/TIE2 cells; without serum; brackets = number of experiments; read-out: Mean ± SD IC50
VEGFR2 [2] = molecular target: T6, VEGFR2 (Homo sapiens, UniProt P35968); test: VEGFR2 autophosphorylation in HuVECs stimulated with VEGF‐A (western blot); assay type: cell-based; design: VEGFR2 autophosphorylation in HuVECs; endogenous in cells; host or cells: HuVEC; conditions: VEGF‐A stimulation, 0.1% bovine serum albumin, estimated from western blots, read-out: Mean ± SD IC50
Protocol: (§1) Endothelial cell assays were performed as described previously 14. In brief, HuVECs and HuLECs were grown in EBM‐2 supplemented with growth factors (Lonza, Walkersville, MD). After serum starvation for 6 h in EBM‐2 containing 0.1% BSA, 2 × 10^5 cells were treated with various concentrations of each compound for 1 h before stimulation with VEGF‐A (50 ng/mL) or VEGF‐C (200 ng/mL) for 10 min. Cells were lysed, and total cell lysates were analyzed for inhibition of phosphorylation by western blot, using antibodies against total and phosphorylated VEGFR2 and VEGFR3, ERK1/2, and AKT. Signals were detected by […] luminescence (GE Healthcare Biosciences; Pittsburgh, PA).

KIT^V559D,T670I = molecular target: T7, KIT^V559D,T670I (Homo sapiens, UniProt P10721, T670I/V559D); test: KINOMEscan active-site competitive binding assay
T7 construct: purchased DiscoveRx (KINOMEscan service)

KIT^D816H = molecular target: T8, KIT^D816H (Homo sapiens, UniProt P10721, D816H); test: KINOMEscan active-site competitive binding assay
T8 construct: purchased DiscoveRx

KIT^V559D = molecular target: T9, KIT^V559D (Homo sapiens, UniProt P10721, V559D); test: KINOMEscan active-site competitive binding assay
T9 construct: purchased DiscoveRx (KINOMEscan service)

FGFRs = test: KINOMEscan active-site competitive binding assay; conditions: range among family members, data not shown
KIT^A829P = molecular target: T10, KIT^A829P (Homo sapiens, UniProt P10721, A829P); test: KINOMEscan active-site competitive binding assay
T10 construct: purchased DiscoveRx

RET^M918T = molecular target: T11, RET^M918T (Homo sapiens, UniProt P07949, M918T); test: KINOMEscan active-site competitive binding assay
T11 construct: purchased DiscoveRx (KINOMEscan service)

PDGFRA = molecular target: T12, PDGFRA (Homo sapiens, UniProt P16234); test: KINOMEscan active-site competitive binding assay; conditions: slash = two separate measurements
T12 construct: purchased DiscoveRx

BRAF = molecular target: T13, BRAF (Homo sapiens, UniProt P15056); test: KINOMEscan active-site competitive binding assay; conditions: slash = two separate measurements
T13 construct: purchased DiscoveRx (KINOMEscan service)

HuLECs = test: VEGF‐C‐induced migration of HuLECs (scratch assay); assay type: cell-based, human; conditions: 100 nmol/L, 40 h
Protocol: A sterile pipette tip was then used to scratch the cell layers, and images were taken after continued incubation for 40 h.

RET^V804M = molecular target: T14, RET^V804M (Homo sapiens, UniProt P07949, V804M); test: KINOMEscan active-site competitive binding assay
T14 construct: purchased DiscoveRx (KINOMEscan service)

PDGFRs = test: KINOMEscan active-site competitive binding assay; conditions: range among family members
VEGFR3 = molecular target: T15, VEGFR3 (Homo sapiens, UniProt P35916); test: VEGFR3 autophosphorylation in HuLECs stimulated with VEGF‐C (western blot); assay type: cell-based; conditions: VEGF‐C stimulation, 0.1% bovine serum albumin, estimated from western blots, read-out: Mean ± SD IC50
T15 construct: VEGFR3 autophosphorylation in HuLECs; endogenous in cells; host or cells: HuLEC
Protocol: as §1

VEGFR2 [3] = molecular target: T6, VEGFR2; test: KINOMEscan active-site competitive binding assay; design: purchased DiscoveRx; conditions: slash = two separate measurements
FLT3^R834Q = molecular target: T16, FLT3^R834Q (Homo sapiens, UniProt P36888, R834Q); test: KINOMEscan active-site competitive binding assay
T16 construct: purchased DiscoveRx

BRAF^V600E = BRAF^V600E (Homo sapiens, UniProt P15056, V600E); test: Cellular kinase phosphorylation assay, RAT‐1/BRAF^V600E; assay type: cell-based; design: host or cells: RAT-1 rat fibroblasts; conditions: RAT‐1/BRAF^V600E cells; without serum; read-out: Mean ± SD IC50
TIE‐2 [4] = molecular target: T5, TIE‐2; test: KINOMEscan active-site competitive binding assay; design: purchased DiscoveRx (KINOMEscan service); conditions: data not shown
RAF1 = molecular target: T17, RAF1 (Homo sapiens, UniProt P04049); test: KINOMEscan active-site competitive binding assay; conditions: slash = two separate measurements
T17 construct: purchased DiscoveRx

RET^V804L = molecular target: T18, RET^V804L (Homo sapiens, UniProt P07949, V804L); test: KINOMEscan active-site competitive binding assay
T18 construct: purchased DiscoveRx (KINOMEscan service)

KIT^V559D,V654A = molecular target: T19, KIT^V559D,V654A (Homo sapiens, UniProt P10721, V559D/V654A); test: KINOMEscan active-site competitive binding assay
T19 construct: purchased DiscoveRx (KINOMEscan service)

FLT3 = molecular target: T20, FLT3 (Homo sapiens, UniProt P36888); test: KINOMEscan active-site competitive binding assay; conditions: slash = two separate measurements
T20 construct: purchased DiscoveRx (KINOMEscan service)

T5 sequence (Q02763 23-1124): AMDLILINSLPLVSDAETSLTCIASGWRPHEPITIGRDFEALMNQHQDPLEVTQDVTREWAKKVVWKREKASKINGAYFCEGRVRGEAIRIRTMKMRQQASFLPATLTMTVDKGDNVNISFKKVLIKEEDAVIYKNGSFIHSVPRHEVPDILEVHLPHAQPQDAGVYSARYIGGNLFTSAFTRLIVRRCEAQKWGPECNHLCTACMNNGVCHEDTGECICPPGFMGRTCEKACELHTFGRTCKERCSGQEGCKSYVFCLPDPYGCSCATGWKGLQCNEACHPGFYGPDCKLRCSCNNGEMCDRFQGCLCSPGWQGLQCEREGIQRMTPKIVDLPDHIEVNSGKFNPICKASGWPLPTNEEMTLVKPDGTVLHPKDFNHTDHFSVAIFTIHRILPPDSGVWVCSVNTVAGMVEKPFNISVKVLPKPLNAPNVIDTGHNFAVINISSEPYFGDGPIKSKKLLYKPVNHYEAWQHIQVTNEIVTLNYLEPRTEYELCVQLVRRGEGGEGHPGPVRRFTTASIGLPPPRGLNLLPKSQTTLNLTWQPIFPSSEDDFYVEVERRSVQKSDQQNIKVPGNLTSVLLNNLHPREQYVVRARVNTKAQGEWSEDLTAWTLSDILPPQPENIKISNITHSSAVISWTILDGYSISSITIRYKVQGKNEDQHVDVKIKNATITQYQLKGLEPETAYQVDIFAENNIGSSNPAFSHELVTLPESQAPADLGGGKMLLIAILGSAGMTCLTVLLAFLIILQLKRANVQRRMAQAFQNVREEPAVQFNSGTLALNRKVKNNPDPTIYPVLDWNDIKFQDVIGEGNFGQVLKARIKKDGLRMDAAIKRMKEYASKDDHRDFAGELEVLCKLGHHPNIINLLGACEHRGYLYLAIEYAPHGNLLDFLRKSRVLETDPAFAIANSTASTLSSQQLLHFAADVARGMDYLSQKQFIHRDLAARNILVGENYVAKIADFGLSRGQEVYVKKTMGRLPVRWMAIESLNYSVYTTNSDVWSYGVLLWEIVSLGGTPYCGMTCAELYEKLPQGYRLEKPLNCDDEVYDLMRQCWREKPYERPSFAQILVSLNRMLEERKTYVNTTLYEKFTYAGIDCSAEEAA
T6 sequence (P35968 20-1356): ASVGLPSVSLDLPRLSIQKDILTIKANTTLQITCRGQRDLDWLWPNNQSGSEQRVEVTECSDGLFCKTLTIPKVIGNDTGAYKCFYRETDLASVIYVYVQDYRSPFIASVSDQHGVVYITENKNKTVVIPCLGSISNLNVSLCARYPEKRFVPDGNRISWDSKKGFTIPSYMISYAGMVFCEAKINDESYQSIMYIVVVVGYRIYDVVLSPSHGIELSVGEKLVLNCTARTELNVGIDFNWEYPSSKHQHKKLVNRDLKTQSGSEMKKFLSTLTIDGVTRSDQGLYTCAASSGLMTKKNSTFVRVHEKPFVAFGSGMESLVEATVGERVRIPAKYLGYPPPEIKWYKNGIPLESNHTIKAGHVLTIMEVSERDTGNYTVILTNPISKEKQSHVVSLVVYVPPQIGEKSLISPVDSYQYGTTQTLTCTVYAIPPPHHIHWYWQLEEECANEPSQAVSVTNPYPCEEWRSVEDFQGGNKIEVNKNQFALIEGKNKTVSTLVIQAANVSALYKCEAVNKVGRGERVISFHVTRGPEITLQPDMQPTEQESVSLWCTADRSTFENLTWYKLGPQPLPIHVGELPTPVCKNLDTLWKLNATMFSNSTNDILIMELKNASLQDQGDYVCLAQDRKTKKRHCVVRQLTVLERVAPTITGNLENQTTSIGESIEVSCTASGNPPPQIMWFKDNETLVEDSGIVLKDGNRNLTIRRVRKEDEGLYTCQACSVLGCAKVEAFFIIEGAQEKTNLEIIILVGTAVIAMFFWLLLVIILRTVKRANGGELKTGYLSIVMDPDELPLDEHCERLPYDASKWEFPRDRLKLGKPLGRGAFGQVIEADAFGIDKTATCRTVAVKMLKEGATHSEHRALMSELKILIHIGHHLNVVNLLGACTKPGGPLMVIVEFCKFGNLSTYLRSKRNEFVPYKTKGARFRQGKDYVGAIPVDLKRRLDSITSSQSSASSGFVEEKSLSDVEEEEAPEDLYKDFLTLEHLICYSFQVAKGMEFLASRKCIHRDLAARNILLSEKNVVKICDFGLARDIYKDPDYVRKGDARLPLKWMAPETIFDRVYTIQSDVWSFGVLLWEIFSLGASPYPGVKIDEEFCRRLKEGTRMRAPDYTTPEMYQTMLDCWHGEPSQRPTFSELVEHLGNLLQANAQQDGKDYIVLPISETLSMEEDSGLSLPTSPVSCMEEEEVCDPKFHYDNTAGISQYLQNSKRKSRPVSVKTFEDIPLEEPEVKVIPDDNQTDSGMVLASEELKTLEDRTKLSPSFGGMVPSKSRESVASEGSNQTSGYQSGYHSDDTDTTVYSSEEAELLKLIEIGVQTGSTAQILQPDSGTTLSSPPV
T4 sequence (P09619 33-1106): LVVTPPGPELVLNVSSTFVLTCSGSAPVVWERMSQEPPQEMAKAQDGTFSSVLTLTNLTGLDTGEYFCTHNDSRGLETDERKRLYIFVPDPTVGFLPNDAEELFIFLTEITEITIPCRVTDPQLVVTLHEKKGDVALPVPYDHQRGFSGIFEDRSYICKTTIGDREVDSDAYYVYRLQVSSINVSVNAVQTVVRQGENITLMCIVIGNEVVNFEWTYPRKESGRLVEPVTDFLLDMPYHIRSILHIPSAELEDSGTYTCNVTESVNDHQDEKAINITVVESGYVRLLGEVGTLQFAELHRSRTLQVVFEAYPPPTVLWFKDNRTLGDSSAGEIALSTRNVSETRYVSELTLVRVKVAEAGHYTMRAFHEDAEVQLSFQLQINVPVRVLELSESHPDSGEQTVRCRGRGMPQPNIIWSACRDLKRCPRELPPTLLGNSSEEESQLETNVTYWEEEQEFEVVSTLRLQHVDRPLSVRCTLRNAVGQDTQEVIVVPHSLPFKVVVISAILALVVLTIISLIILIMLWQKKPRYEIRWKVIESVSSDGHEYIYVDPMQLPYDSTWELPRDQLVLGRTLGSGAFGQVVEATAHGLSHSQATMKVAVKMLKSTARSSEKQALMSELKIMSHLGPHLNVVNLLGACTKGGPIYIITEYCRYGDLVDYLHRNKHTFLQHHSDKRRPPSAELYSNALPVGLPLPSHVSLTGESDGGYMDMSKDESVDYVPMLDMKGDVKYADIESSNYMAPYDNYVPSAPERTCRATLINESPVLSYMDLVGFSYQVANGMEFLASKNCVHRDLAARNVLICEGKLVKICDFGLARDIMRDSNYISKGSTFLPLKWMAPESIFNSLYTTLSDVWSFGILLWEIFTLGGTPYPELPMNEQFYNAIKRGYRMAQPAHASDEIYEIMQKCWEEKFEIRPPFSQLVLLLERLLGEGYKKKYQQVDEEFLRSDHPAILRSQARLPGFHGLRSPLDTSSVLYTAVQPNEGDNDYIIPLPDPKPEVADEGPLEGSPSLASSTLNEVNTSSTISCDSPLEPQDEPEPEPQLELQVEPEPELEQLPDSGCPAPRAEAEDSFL
T13 sequence (P15056 whole entry): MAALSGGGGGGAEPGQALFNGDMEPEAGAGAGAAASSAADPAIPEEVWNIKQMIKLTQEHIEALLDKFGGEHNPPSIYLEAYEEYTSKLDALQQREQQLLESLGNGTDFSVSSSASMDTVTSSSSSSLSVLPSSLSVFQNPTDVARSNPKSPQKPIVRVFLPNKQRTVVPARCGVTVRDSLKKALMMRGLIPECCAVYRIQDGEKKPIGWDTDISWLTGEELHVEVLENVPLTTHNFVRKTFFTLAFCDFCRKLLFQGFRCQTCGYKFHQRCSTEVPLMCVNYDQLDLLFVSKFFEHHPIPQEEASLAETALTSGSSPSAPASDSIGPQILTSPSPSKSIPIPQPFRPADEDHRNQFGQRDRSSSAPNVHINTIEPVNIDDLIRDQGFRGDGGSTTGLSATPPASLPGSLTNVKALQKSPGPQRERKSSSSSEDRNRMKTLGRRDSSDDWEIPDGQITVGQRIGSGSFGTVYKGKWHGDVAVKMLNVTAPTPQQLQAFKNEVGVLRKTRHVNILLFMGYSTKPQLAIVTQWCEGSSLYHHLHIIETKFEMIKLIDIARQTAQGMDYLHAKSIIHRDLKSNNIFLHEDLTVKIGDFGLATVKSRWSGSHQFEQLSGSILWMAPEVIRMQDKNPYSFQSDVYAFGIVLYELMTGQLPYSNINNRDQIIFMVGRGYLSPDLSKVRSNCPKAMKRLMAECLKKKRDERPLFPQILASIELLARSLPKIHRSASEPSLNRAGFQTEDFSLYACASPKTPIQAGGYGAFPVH
BRAF^V600E, sequence (P15056 whole entry V600E): as the sequence (P15056 whole entry) above, with V600E counted along it
T17 sequence (P04049 whole entry): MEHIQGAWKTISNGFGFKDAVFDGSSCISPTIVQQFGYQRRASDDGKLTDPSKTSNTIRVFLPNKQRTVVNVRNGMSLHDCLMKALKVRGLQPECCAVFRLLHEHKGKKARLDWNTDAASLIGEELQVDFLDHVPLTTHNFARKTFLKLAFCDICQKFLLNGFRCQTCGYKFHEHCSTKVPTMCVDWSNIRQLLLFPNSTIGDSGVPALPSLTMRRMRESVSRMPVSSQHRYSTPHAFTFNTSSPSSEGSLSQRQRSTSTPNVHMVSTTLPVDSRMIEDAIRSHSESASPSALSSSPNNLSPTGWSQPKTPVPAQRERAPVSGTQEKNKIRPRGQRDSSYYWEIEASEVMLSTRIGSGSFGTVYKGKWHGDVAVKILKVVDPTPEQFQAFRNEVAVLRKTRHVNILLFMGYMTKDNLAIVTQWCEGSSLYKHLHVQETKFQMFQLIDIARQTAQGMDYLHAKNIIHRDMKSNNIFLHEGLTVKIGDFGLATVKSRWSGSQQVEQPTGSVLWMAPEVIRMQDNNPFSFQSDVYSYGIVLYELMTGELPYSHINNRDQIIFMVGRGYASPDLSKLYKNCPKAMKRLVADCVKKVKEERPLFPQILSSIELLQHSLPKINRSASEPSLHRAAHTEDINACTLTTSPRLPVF

SMILES | IC50 (PDGFRα) [nM] | Kd (KIT^L576P) [nM] | Kd (PDGFRB) [nM] | IC50 (KIT) [nM] | IC50 (TIE‐2 [1]) [nM] | IC50 (VEGFR2 [2]) [nM] | Kd (KIT^V559D,T670I) [nM] | Kd (KIT^D816H) [nM] | Kd (KIT^V559D) [nM] | Kd (FGFRs) [nM] | Kd (KIT^A829P) [nM] | Kd (RET^M918T) [nM] | Kd (BRAF) [nM] | Inhibition of VEGF‐C‐induced migration (HuLECs) | Kd (RET^V804M) [nM] | Kd (PDGFRs) [nM] | IC50 (VEGFR3) [nM] | Kd (VEGFR2 [3]) [nM] | Kd (FLT3^R834Q) [nM] | IC50 (BRAF^V600E) [nM] | also measured
CNC(=O)c1cc(Oc2ccc(NC(=O)Nc3ccc(Cl)c(C(F)(F)F)c3)c(F)c2)cc[n+]1[O-] [M‐2] | 44 | 17 | 11 | 13 | 66 ± 35 | ~4 | 12 | 490 | 12 | 440 to 880 | 19 | 7.4 | 24 | inhibited | 20 | 7.3 to 11 | ~4 | 29 | 240 | 21 | Kd (FLT3^D835H): 120 nM; Kd (PDGFRA): 7.3 nM; Kd (TIE‐2 [4]): 790 nM; Kd (RAF1): 130 nM; Kd (RET^V804L): 13 nM; Kd (KIT^V559D,V654A): 51 nM
NC(=O)c1cc(Oc2ccc(NC(=O)Nc3ccc(Cl)c(C(F)(F)F)c3)c(F)c2)cc[n+]1[O-] [M‐5] | 61 | 9.1 | 11 | 110 | 180 | ~16 | 11 | 460 | 9.6 | 790 to 1100 | 19 | 5.8 | 17 | inhibited | 25 | 11 | ~16 | 31 | 270 | 27 | Kd (FLT3): 2.6 nM; Kd (TIE‐2 [4]): 1200 nM; Kd (RAF1): 66 nM; Kd (RET^V804L): 15 nM; Kd (KIT^V559D,V654A): 42 nM

— PMC5119973 (Cancer Medicine, 2016)
